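Following 48 hours of exposure in 96-well plates, responses at five concentrations were used to interpolate endpoints linearly. GI50 is the concentration that inhibits growth by half. TGI is the concentration that stops growth completely.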
Key:
Assay in all cases: NCI tumour cell line growth inhibition, 48 h
[1] = test system: 786-0 renal
[2] = test system: A498 renal
[3] = test system: A549 NSCLC
[4] = test system: ACHN renal
[5] = test system: CAKI-1 renal
[6] = test system: CCRF-CEM leukemia
[7] = test system: COLO 205 colon
[8] = test system: DLD-1 colon
[9] = test system: DMS 114 small cell lung
[10] = test system: DMS 273 small cell lung
[11] = test system: EKVX NSCLC
[12] = test system: HCC-2998 colon
[13] = test system: HCT-15 colon
[14] = test system: HL-60(TB) leukemia
[15] = test system: HOP-18 NSCLC
[16] = test system: HOP-62 NSCLC
[17] = test system: HOP-92 NSCLC
[18] = test system: HT29 colon
[19] = test system: IGROV1 ovarian
[20] = test system: K-562 leukemia
[21] = test system: KM12 colon
[22] = test system: LOX IMVI melanoma
[23] = test system: LXFL 529 NSCLC
[24] = test system: M14 melanoma
[25] = test system: M19-MEL melanoma
[26] = test system: MALME-3M melanoma
[27] = test system: MOLT-4 leukemia
[28] = test system: NCI-H226 lung
[29] = test system: NCI-H23 lung
[30] = test system: NCI-H522 lung
[31] = test system: OVCAR-3 ovarian
[32] = test system: OVCAR-4 ovarian
[33] = test system: OVCAR-5 ovarian
[34] = test system: OVCAR-8 ovarian
[35] = test system: RPMI-8226 leukemia
[36] = test system: RXF 393 renal
[37] = test system: RXF-631 renal
[38] = test system: SF-268 CNS
[39] = test system: SF-295 CNS
[40] = test system: SF-539 CNS
[41] = test system: SK-MEL-2 melanoma
[42] = test system: SK-MEL-28 melanoma
[43] = test system: SK-MEL-5 melanoma
[44] = test system: SK-OV-3 ovarian
[45] = test system: SN12C renal
[46] = test system: SNB-19 CNS
[47] = test system: SNB-75 CNS
[48] = test system: SNB-78 CNS
[49] = test system: SW-620 colon
[50] = test system: TK-10 renal
[51] = test system: U251 CNS
[52] = test system: UACC-257 melanoma
[53] = test system: UACC-62 melanoma
[54] = test system: UO-31 renal
[55] = test system: XF 498 CNS
[56] = test system: HCT-116 colon
[57] = test system: KM20L2 colon
[58] = test system: NCI-H460 lung
[59] = test system: SR leukemia

c1ccc(N=c2snc3scc(-c4ccccc4)n23)cc1
TGI [1]: > 100 µM | TGI [2]: > 100 µM | TGI [3]: > 100 µM | TGI [4]: > 100 µM | TGI [5]: > 100 µM | TGI [6]: > 100 µM | TGI [7]: 80.6 µM | TGI [8]: > 100 µM | TGI [9]: 88.8 µM | TGI [10]: > 100 µM | TGI [11]: > 100 µM | TGI [12]: > 100 µM | TGI [13]: > 100 µM | TGI [14]: > 100 µM | TGI [15]: > 100 µM | TGI [16]: > 100 µM | TGI [17]: 76.3 µM | TGI [18]: > 100 µM | TGI [19]: > 100 µM | TGI [20]: > 100 µM | TGI [21]: > 100 µM | TGI [22]: > 100 µM | TGI [23]: > 100 µM | TGI [24]: 96.2 µM | TGI [25]: > 100 µM | TGI [26]: 98.6 µM | TGI [27]: 79.6 µM | TGI [28]: > 100 µM | TGI [29]: > 100 µM | TGI [30]: 38.4 µM | TGI [31]: 62.2 µM | TGI [32]: > 100 µM | TGI [33]: > 100 µM | TGI [34]: > 100 µM | TGI [35]: 86.7 µM | TGI [36]: > 100 µM | TGI [37]: > 100 µM | TGI [38]: > 100 µM | TGI [39]: > 100 µM | TGI [40]: > 100 µM | TGI [41]: > 100 µM | TGI [42]: > 100 µM | TGI [43]: 61.9 µM | TGI [44]: > 100 µM | TGI [45]: > 100 µM | TGI [46]: > 100 µM | TGI [47]: > 100 µM | TGI [48]: > 100 µM | TGI [49]: > 100 µM | TGI [50]: > 100 µM | TGI [51]: 68.3 µM | TGI [52]: > 100 µM | TGI [53]: 92.1 µM | TGI [54]: 81.4 µM | TGI [55]: 66.6 µM

O=C(NCCO)c1cc2c(cn1)[nH]c1ccccc12
TGI [1]: 33.7 µM | TGI [2]: > 100 µM | TGI [3]: > 100 µM | TGI [4]: > 100 µM | TGI [5]: > 100 µM | TGI [6]: > 100 µM | TGI [7]: > 100 µM | TGI [8]: > 100 µM | TGI [9]: > 100 µM | TGI [10]: > 100 µM | TGI [11]: > 100 µM | TGI [12]: 33.2 µM | TGI [56]: > 100 µM | TGI [13]: > 100 µM | TGI [14]: > 100 µM | TGI [16]: 40.1 µM | TGI [17]: > 100 µM | TGI [18]: > 100 µM | TGI [19]: > 100 µM | TGI [20]: > 100 µM | TGI [21]: > 100 µM | TGI [57]: > 100 µM | TGI [22]: > 100 µM | TGI [23]: > 100 µM | TGI [24]: > 100 µM | TGI [26]: 43.9 µM | TGI [27]: > 100 µM | TGI [28]: > 100 µM | TGI [29]: > 100 µM | TGI [58]: > 100 µM | TGI [30]: > 100 µM | TGI [31]: > 100 µM | TGI [32]: > 100 µM | TGI [33]: > 100 µM | TGI [34]: > 100 µM | TGI [35]: > 100 µM | TGI [36]: > 100 µM | TGI [37]: > 100 µM | TGI [38]: > 100 µM | TGI [39]: > 100 µM | TGI [40]: > 100 µM | TGI [41]: 33.6 µM | TGI [42]: > 100 µM | TGI [43]: > 100 µM | TGI [44]: > 100 µM | TGI [45]: > 100 µM | TGI [46]: > 100 µM | TGI [47]: > 100 µM | TGI [48]: > 100 µM | TGI [49]: > 100 µM | TGI [50]: > 100 µM | TGI [51]: > 100 µM | TGI [52]: > 100 µM | TGI [53]: > 100 µM | TGI [54]: > 100 µM | TGI [55]: > 100 µM

C#Cc1c(C)c(/C=C/C(C)=C/C=C/C(C)=C/C(=O)OC)n(C)c1C
TGI [1]: > 100 µM | TGI [3]: > 100 µM | TGI [4]: > 100 µM | TGI [5]: > 100 µM | TGI [6]: > 100 µM | TGI [7]: > 100 µM | TGI [8]: > 100 µM | TGI [9]: > 100 µM | TGI [11]: > 100 µM | TGI [56]: > 100 µM | TGI [13]: > 100 µM | TGI [14]: > 100 µM | TGI [16]: > 100 µM | TGI [17]: > 100 µM | TGI [18]: > 100 µM | TGI [19]: > 100 µM | TGI [20]: > 100 µM | TGI [21]: > 100 µM | TGI [57]: > 100 µM | TGI [22]: > 100 µM | TGI [23]: > 100 µM | TGI [24]: > 100 µM | TGI [25]: > 100 µM | TGI [26]: > 100 µM | TGI [27]: > 100 µM | TGI [29]: > 100 µM | TGI [58]: > 100 µM | TGI [30]: > 100 µM | TGI [31]: > 100 µM | TGI [32]: > 100 µM | TGI [33]: > 100 µM | TGI [34]: > 100 µM | TGI [35]: > 100 µM | TGI [37]: > 100 µM | TGI [38]: > 100 µM | TGI [39]: > 100 µM | TGI [40]: > 100 µM | TGI [41]: > 100 µM | TGI [42]: > 100 µM | TGI [44]: > 100 µM | TGI [46]: > 100 µM | TGI [47]: > 100 µM | TGI [48]: > 100 µM | TGI [59]: > 100 µM | TGI [49]: > 100 µM | TGI [50]: > 100 µM | TGI [51]: > 100 µM | TGI [52]: > 100 µM | TGI [53]: > 100 µM | TGI [54]: > 100 µM | TGI [55]: > 100 µM

Cc1ccc2[nH]c3c(C)c4c(c(C)c3c2c1)CN(C)C=C4
TGI [1]: 10.5 µM | TGI [3]: 2.99 µM | TGI [4]: 20.5 µM | GI50 [5]: 1.21 µM | TGI [5]: 5.89 µM | GI50 [6]: 2.33 µM | TGI [6]: 22 µM | TGI [7]: 1.4 µM | TGI [8]: 13.1 µM | GI50 [9]: 0.437 µM | TGI [9]: 2.1 µM | TGI [10]: 3.09 µM | TGI [11]: 10 µM | TGI [12]: 3.52 µM | TGI [56]: 10.6 µM | TGI [13]: 28.2 µM | TGI [14]: 23.5 µM | TGI [15]: 26.9 µM | TGI [16]: 2.71 µM | TGI [17]: 4.74 µM | TGI [18]: 11.2 µM | TGI [19]: 7.38 µM | TGI [20]: > 38.9 µM | TGI [21]: 2.4 µM | TGI [57]: 11.8 µM | TGI [22]: 17 µM | TGI [23]: 2.35 µM | TGI [24]: 13.6 µM | GI50 [26]: 1.72 µM | TGI [26]: 4.58 µM | TGI [27]: > 40.6 µM | TGI [28]: 2.13 µM | TGI [29]: 2.3 µM | TGI [58]: 12 µM | TGI [30]: 1.38 µM | TGI [31]: 14.8 µM | TGI [32]: 6.76 µM | TGI [33]: 9.41 µM | TGI [34]: 9.01 µM | TGI [35]: 35.5 µM | TGI [36]: 12.9 µM | TGI [37]: 8.75 µM | TGI [38]: 0.975 µM | TGI [39]: 3.73 µM | TGI [40]: 1.62 µM | TGI [41]: 3.2 µM | TGI [42]: 4.03 µM | TGI [43]: 2.94 µM | TGI [44]: 7.04 µM | TGI [45]: 0.682 µM | TGI [46]: 1.99 µM | TGI [47]: 2.27 µM | TGI [48]: 3.41 µM | TGI [59]: > 36.8 µM | TGI [49]: 3 µM | TGI [50]: 21.9 µM | TGI [51]: 1.09 µM | TGI [52]: 8 µM | TGI [53]: 3.15 µM | TGI [54]: 19.5 µM | TGI [55]: 6.06 µM

From PubChem BioAssay (NCI)
